Assay results reported in ChEMBL document CHEMBL6120980, “Discovery of First Branched-Chain Ketoacid Dehydrogenase Kinase (BDK) Inhibitor Clinical Candidate PF-07328948” (J Med Chem, 2025).
Each block holds one compound with its values, some of them ahead of it.

Assays:
[1] = human, hepatocytes, 4 h, 1 µM
physchem = conditions: octanol/water
in vitro = conditions: dog, MDCK
[2] = molecular target: Branched-chain alpha-ketoacid dehydrogenase kinase (Mus musculus, UniProt O55028); assay: Inhibition of mouse BDK using LBD-Tev-PhosphoPep/Lipoyl as substrate preincubated for 15 mins followed by substrate/ATP addition and measured after 90 mins by TR-FRET assay
[3] = molecular target: UDP-glucuronosyltransferase 1A1 (Homo sapiens, UniProt P22309); assay: Drug metabolism assessed as recombinant human UGT1A1-mediated (2S,3S,4S,5R)-6-((6-fluoro-3-(2,4,5-trifluoro-3-methoxyphenyl)benzo[b]thiophene-2-carbonyl)oxy)-3,4,5-trihydroxytetrahydro-2H-pyran-2-carboxylic acid metabolite formation at 1 uM; assay type: ADME; conditions: recombinant enzyme
[4] = molecular target: UDP-glucuronosyltransferase 1A3 (Homo sapiens, UniProt P35503); assay: Drug metabolism assessed as recombinant human UGT1A3-mediated (2S,3S,4S,5R)-6-((6-fluoro-3-(2,4,5-trifluoro-3-methoxyphenyl)benzo[b]thiophene-2-carbonyl)oxy)-3,4,5-trihydroxytetrahydro-2H-pyran-2-carboxylic acid metabolite formation at 1 uM; assay type: ADME; conditions: recombinant enzyme
[5] = molecular target: UDP-glucuronosyltransferase 1A9 (Homo sapiens, UniProt O60656); assay: Drug metabolism assessed as recombinant human UGT1A9-mediated (2S,3S,4S,5R)-6-((6-fluoro-3-(2,4,5-trifluoro-3-methoxyphenyl)benzo[b]thiophene-2-carbonyl)oxy)-3,4,5-trihydroxytetrahydro-2H-pyran-2-carboxylic acid metabolite formation at 1 uM; assay type: ADME; conditions: recombinant enzyme
[6] = molecular target: UDP-glucuronosyltransferase 2B4 (Homo sapiens, UniProt P06133); assay: Drug metabolism assessed as recombinant human UGT2B4-mediated (2S,3S,4S,5R)-6-((6-fluoro-3-(2,4,5-trifluoro-3-methoxyphenyl)benzo[b]thiophene-2-carbonyl)oxy)-3,4,5-trihydroxytetrahydro-2H-pyran-2-carboxylic acid metabolite formation at 1 uM; assay type: ADME; conditions: recombinant enzyme
[7] = molecular target: UDP-glucuronosyltransferase 2B15 (Homo sapiens, UniProt P54855); assay: Drug metabolism assessed as recombinant human UGT2B15-mediated (2S,3S,4S,5R)-6-((6-fluoro-3-(2,4,5-trifluoro-3-methoxyphenyl)benzo[b]thiophene-2-carbonyl)oxy)-3,4,5-trihydroxytetrahydro-2H-pyran-2-carboxylic acid metabolite formation at 1 uM; assay type: ADME; conditions: recombinant enzyme
Cytochrome P450 = assay: Drug metabolism in human hepatocytes assessed as CYP450-catalyzed o-demethylation mediated 6-fluoro-3-(2,4,5-trifluoro-3-hydroxyphenyl)benzo[b]thiophene-2-carboxylic acid metabolite formation by mass spectrometric analysis; assay type: ADME, cell-based, Hepatocyte
[8] = molecular target: Solute carrier family 22 member 6 (Homo sapiens, UniProt Q4U2R8); assay: Inhibition of human OAT1 expressed in HEK293 cells using p-aminohippuric acid as substrate preincubated for 30 mins followed by substrate addition and measured after 1 to 4 mins; assay type: cell-based
Cytochrome P450 2C19 = Cytochrome P450 2C19 (Homo sapiens, UniProt P33261); assay: Reversible inhibition of human CYP2C19-mediated S-mephenytoin-4'-hydroxylation in human liver microsomes using S-mephenytoin as substrate in presence of NADPH; assay type: ADME, Microsome
Cytochrome P450 2D6 = Cytochrome P450 2D6 (Homo sapiens, UniProt P10635); assay: Reversible inhibition of human CYP2D6-mediated dextromethorphan-O-demethylation in human liver microsomes using dextromethorphan as substrate in presence of NADPH; assay type: ADME, Microsome
Cytochrome P450 3A4 [9] = molecular target: T1, Cytochrome P450 3A4 (Homo sapiens, UniProt P08684); assay: Reversible inhibition of human CYP3A4-mediated midazolam-1'-hydroxylation in human liver microsomes using midazolam as substrate in presence of NADPH; assay type: ADME, Microsome
Cytochrome P450 3A4 [10] = molecular target: T1, Cytochrome P450 3A4; assay: Reversible inhibition of human CYP3A4-mediated testosterone-6beta-hydroxylation in human liver microsomes using testosterone as substrate in presence of NADPH; assay type: ADME, Microsome
Cytochrome P450 3A5 = Cytochrome P450 3A5 (Homo sapiens, UniProt P20815); assay: Reversible inhibition of human CYP3A5-mediated nifedipine oxidation in human liver microsomes using nifedipine as substrate in presence of NADPH; assay type: ADME, Microsome
Cytochrome P450 1A2 = Cytochrome P450 1A2 (Homo sapiens, UniProt P05177); assay: Reversible inhibition of human CYP1A2-mediated phenacetin-O-dealkylation in human liver microsomes using phenacetin as substrate in presence of NADPH; assay type: ADME, Microsome
Cytochrome P450 2B6 = Cytochrome P450 2B6 (Homo sapiens, UniProt P20813); assay: Reversible inhibition of human CYP2B6-mediated bupropion hydroxylation in human liver microsomes using bupropion as substrate in presence of NADPH; assay type: ADME, Microsome
Cytochrome P450 2C8 = Cytochrome P450 2C8 (Homo sapiens, UniProt P10632); assay: Reversible inhibition of human CYP2C8-mediated amodiaquine N-dealkylation in human liver microsomes using amodiaquine as substrate in presence of NADPH; assay type: ADME, Microsome
Cytochrome P450 2C9 = Cytochrome P450 2C9 (Homo sapiens, UniProt P11712); assay: Reversible inhibition of human CYP2C9-mediated diclofenac-4'-hydroxylation in human liver microsomes using diclofenac as substrate in presence of NADPH; assay type: ADME, Microsome
[11] = molecular target: Organic anion transporter 3 (Homo sapiens, UniProt Q8TCC7); assay: Inhibition of human OAT3 expressed in HEK293 cells using estrone-3-sulfate as substrate preincubated for 30 mins followed by substrate addition and measured after 1 to 4 mins; assay type: cell-based
[12] = molecular target: Solute carrier organic anion transporter family member 1B1 (Homo sapiens, UniProt Q9Y6L6); assay: Inhibition of human OATP1B1 expressed in HEK293 cells using rosuvastatin as substrate preincubated for 30 mins followed by substrate addition and measured after 1 to 4 mins; assay type: cell-based
[13] = molecular target: ATP-dependent translocase ABCB1 (Homo sapiens, UniProt P08183); assay: Inhibition of human MDR1 expressed in HEK293 cell vesicles using N-methylquinidine as substrate preincubated for 30 mins followed by substrate addition and measured after 1 to 4 mins; assay type: subcellular, Vesicle
[14] = molecular target: Solute carrier organic anion transporter family member 1B3 (Homo sapiens, UniProt Q9NPD5); assay: Inhibition of human OATP1B3 expressed in HEK293 cells using rosuvastatin as substrate preincubated for 30 mins followed by substrate addition and measured after 1 to 4 mins; assay type: cell-based
[15] = molecular target: Solute carrier family 22 member 1 (Homo sapiens, UniProt O15245); assay: Inhibition of human OCT1 expressed in HEK293 cells using [14C]metformin as substrate preincubated for 30 mins followed by substrate addition and measured after 1 to 4 mins; assay type: cell-based
[16] = molecular target: Solute carrier family 22 member 2 (Homo sapiens, UniProt O15244); assay: Inhibition of human OCT2 expressed in HEK293 cells using [14C]metformin as substrate preincubated for 30 mins followed by substrate addition and measured after 1 to 4 mins; assay type: cell-based
[17] = molecular target: Multidrug and toxin extrusion protein 1 (Homo sapiens, UniProt Q96FL8); assay: Inhibition of human MATE1 expressed in HEK293 cells using [14C]metformin as substrate preincubated for 30 mins followed by substrate addition and measured after 1 to 4 mins; assay type: cell-based
[18] = molecular target: Multidrug and toxin extrusion protein 2 (Homo sapiens, UniProt Q86VL8); assay: Inhibition of human MATE2K expressed in HEK293 cells using [14C]metformin as substrate preincubated for 30 mins followed by substrate addition and measured after 1 to 4 mins; assay type: cell-based
[19] = human, hepatocytes, 4 h, 5 µM
[20] = molecular target: Branched-chain alpha-ketoacid dehydrogenase kinase (Homo sapiens) (UniProt O14874); assay: Potency index, ratio of PF-07208254 IC50 to test compound IC50 for inhibition of human BDK using LBD-Tev-PhosphoPep/Lipoyl as substrate preincubated for 15 mins followed by substrate/ATP addition and measured after 90 mins by TR-FRET assay
[21] = molecular target: Branched-chain alpha-ketoacid dehydrogenase kinase (Homo sapiens) (UniProt O14874); assay: Potency index, ratio of PF-07208254 IC50 to test compound IC50 for inhibition of BDK in human skeletal myocyte using BCKDHA as substrate assessed as inhibition of substrate phosphorylation incubated for 60 mins by AlphaLISA surefire ultra assay
[22] = Retention time of compound in phosphate buffer at pH 7.4 measured after approximately 150 mins by HPLC-UV analysis; assay type: physicochemical
[23] = Drug degradation in phosphate/D2O buffer at pH 7.6 assessed as half-life by H1-NMR analysis; assay type: ADME

T1 sequence (P08684 whole entry): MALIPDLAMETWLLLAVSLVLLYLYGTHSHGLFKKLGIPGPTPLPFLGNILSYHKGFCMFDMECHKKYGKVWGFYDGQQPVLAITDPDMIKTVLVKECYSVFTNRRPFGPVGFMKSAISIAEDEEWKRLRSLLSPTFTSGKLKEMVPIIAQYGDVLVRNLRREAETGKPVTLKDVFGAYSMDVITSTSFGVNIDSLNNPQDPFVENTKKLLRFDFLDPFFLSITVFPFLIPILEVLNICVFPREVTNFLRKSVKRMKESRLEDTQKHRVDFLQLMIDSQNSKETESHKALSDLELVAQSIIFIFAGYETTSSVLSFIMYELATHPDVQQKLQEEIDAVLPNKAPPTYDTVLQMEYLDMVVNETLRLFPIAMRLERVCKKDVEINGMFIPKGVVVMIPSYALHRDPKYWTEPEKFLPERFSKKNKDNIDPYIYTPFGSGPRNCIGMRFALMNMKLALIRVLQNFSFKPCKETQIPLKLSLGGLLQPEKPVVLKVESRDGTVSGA
Sequence of UDP-glucuronosyltransferase 2B4 (P06133 whole entry): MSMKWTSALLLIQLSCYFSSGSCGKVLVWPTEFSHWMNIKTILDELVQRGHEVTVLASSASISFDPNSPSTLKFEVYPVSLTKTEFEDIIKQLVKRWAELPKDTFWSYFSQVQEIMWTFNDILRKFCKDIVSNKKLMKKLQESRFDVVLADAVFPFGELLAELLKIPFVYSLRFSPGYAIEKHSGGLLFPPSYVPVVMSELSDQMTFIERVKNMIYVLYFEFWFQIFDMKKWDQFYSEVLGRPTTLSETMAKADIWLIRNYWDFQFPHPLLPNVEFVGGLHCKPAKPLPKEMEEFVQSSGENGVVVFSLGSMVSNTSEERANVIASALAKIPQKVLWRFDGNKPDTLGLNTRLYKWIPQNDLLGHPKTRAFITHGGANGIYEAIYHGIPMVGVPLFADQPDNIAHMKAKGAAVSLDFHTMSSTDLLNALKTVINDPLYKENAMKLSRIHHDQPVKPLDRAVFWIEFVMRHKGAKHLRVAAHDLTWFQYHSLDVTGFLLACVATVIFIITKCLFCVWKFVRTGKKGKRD
Sequence of Solute carrier family 22 member 2 (O15244 whole entry): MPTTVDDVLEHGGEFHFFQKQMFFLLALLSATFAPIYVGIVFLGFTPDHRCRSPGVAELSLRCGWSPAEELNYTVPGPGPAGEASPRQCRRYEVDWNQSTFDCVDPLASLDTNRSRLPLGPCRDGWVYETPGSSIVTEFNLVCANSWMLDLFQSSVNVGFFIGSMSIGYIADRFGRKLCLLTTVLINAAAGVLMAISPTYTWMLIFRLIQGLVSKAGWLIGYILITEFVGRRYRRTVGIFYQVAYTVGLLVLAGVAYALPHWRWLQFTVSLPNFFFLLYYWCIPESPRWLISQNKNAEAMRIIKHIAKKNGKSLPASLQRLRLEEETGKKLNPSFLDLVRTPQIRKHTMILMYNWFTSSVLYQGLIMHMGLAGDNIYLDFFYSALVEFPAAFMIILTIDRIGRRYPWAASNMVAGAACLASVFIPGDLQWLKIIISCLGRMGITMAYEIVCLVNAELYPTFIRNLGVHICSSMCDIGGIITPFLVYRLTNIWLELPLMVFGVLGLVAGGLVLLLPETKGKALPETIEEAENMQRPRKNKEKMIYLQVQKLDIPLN
Sequence of Multidrug and toxin extrusion protein 1 (Q96FL8 whole entry): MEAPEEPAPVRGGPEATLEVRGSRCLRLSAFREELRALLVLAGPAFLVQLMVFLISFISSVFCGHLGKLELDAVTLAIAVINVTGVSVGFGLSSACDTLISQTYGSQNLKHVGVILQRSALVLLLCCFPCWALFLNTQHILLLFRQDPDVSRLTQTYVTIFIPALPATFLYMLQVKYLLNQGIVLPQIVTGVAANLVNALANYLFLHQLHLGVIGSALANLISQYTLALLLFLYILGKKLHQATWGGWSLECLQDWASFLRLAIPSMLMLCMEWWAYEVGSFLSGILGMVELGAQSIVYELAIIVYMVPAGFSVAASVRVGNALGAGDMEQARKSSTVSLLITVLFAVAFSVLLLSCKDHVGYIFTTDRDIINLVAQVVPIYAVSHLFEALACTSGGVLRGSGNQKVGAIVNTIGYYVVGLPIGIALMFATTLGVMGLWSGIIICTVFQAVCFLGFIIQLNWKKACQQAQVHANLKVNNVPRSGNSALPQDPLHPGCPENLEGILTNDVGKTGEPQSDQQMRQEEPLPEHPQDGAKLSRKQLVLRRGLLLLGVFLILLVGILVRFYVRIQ
Sequence of ATP-dependent translocase ABCB1 (P08183 whole entry): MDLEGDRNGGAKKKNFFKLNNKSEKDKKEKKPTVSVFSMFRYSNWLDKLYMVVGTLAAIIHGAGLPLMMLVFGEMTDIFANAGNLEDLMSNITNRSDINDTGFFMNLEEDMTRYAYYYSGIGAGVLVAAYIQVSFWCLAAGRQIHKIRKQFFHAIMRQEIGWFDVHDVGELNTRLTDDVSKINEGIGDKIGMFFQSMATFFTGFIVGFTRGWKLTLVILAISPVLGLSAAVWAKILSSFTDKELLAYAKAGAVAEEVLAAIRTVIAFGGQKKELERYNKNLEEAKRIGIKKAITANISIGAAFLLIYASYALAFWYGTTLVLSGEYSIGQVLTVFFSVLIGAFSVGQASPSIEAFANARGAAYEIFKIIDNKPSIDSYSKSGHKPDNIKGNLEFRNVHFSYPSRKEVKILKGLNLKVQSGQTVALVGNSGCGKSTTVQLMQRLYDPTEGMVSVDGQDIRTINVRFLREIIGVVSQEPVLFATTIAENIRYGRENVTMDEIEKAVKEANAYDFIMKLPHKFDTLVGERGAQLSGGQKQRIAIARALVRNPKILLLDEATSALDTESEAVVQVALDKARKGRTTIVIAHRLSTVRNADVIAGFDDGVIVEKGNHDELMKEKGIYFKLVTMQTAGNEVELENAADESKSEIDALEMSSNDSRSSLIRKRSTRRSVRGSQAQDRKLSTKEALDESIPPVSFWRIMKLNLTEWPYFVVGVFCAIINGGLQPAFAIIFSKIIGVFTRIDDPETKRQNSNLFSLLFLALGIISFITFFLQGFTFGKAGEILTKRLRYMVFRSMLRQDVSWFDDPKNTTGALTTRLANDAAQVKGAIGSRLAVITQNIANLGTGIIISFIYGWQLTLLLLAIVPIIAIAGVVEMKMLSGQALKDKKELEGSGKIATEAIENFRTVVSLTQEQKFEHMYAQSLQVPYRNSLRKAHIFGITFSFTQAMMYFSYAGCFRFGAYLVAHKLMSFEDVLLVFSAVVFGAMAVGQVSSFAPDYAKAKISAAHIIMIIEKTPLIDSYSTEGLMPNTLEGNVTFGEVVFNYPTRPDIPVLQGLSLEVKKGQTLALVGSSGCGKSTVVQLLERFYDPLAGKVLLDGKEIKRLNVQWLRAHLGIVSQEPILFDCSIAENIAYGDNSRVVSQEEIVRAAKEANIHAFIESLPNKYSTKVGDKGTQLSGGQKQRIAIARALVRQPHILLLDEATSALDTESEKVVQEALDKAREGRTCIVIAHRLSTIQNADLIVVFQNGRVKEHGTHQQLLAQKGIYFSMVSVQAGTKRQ
Sequence of Organic anion transporter 3 (Q8TCC7 whole entry): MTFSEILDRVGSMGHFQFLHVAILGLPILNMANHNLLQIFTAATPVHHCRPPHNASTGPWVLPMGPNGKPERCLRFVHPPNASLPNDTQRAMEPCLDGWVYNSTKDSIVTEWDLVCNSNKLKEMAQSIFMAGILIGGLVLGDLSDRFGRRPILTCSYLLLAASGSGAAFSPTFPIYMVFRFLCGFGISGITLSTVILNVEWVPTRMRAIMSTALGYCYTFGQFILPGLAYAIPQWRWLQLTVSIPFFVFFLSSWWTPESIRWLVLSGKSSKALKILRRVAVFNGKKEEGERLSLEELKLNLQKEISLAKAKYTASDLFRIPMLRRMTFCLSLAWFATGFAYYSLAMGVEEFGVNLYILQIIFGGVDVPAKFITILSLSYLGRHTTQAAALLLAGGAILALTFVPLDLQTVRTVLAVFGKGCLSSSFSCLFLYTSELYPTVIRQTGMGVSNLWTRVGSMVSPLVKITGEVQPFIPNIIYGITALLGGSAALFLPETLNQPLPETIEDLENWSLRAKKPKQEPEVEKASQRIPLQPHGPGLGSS
Sequence of Cytochrome P450 2C19 (P33261 whole entry): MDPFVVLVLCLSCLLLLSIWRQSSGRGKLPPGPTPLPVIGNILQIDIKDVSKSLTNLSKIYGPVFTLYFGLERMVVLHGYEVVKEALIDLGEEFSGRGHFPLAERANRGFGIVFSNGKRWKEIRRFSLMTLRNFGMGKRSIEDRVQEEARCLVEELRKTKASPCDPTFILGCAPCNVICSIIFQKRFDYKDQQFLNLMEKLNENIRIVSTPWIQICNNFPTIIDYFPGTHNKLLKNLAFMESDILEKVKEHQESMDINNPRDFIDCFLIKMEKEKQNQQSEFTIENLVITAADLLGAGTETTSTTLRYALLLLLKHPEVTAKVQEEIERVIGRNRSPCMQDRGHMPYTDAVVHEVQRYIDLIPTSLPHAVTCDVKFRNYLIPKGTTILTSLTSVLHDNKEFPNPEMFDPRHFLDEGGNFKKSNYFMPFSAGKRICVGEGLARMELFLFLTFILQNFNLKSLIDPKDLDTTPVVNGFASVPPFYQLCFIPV
Sequence of Cytochrome P450 2B6 (P20813 whole entry): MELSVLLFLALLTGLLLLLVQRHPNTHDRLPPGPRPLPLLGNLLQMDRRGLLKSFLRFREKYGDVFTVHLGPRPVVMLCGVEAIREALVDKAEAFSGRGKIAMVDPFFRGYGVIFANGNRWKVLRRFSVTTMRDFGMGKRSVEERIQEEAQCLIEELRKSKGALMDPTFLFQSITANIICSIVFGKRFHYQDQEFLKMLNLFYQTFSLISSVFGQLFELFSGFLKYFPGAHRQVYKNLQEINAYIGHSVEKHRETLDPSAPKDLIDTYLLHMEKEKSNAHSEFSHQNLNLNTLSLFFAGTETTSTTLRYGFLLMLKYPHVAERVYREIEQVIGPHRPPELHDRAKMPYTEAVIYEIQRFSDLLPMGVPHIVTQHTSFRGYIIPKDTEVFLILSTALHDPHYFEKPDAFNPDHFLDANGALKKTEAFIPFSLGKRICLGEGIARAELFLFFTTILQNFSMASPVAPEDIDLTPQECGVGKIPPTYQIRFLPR

CLH(app) [1]: 32 µL/min
logD (physchem): 1.4
Papp A→B (in vitro): 8.5 ×10⁻⁶ cm/s
SMILES: COc1cccc(-c2c(C(=O)O)sc3cc(F)ccc23)c1

CLH(app) [1]: 23 µL/min
logD (physchem): 1
Papp A→B (in vitro): 28 ×10⁻⁶ cm/s
SMILES: COc1cccc(-c2c(C(=O)O)sc3cc(F)ccc23)c1F

logD (physchem): 1.6
Papp A→B (in vitro): 11 ×10⁻⁶ cm/s
SMILES: Cc1c(F)c(F)cc(-c2c(C(=O)O)sc3cc(F)ccc23)c1F

IC50 [2]: 0.041 µM
Drug metabolism [3]: metabolite_detected
Drug metabolism [4]: metabolite_detected
Drug metabolism [5]: metabolite_detected
Drug metabolism [6]: metabolite_detected
Drug metabolism [7]: metabolite_detected
Drug metabolism (Cytochrome P450): metabolite_detected
IC50 [8]: 3.3 µM
IC50 (Cytochrome P450 2C19): > 100 µM
IC50 (Cytochrome P450 2D6): > 100 µM
IC50 (Cytochrome P450 3A4 [9]): > 100 µM
IC50 (Cytochrome P450 3A4 [10]): > 100 µM
IC50 (Cytochrome P450 3A5): > 100 µM
IC50 (Cytochrome P450 1A2): 1.1 µM
IC50 (Cytochrome P450 2B6): 6.7 µM
IC50 (Cytochrome P450 2C8): 23.6 µM
IC50 (Cytochrome P450 2C9): 1 µM
IC50 [11]: 0.67 µM
IC50 [12]: 4.5 µM
IC50 [13]: > 80 µM
IC50 [14]: > 80 µM
IC50 [15]: > 80 µM
IC50 [16]: > 80 µM
SMILES: COc1c(F)c(F)cc(-c2c(C(=O)O)sc3cc(F)ccc23)c1F
IC50 [17]: > 80 µM
IC50 [18]: > 80 µM

CLH(app) [1]: 31 µL/min
logD (physchem): 1.1
SMILES: O=C(O)c1sc2cc(F)ccc2c1-c1ccccc1

SMILES: O=C(O)c1sc2cc(Cl)ccc2c1Cl
CLH(app) [1]: 5.2 µL/min
logD (physchem): 0.7
Papp A→B (in vitro): 31 ×10⁻⁶ cm/s

CLH(app) [1]: 43 µL/min
logD (physchem): 1.5
Papp A→B (in vitro): 16 ×10⁻⁶ cm/s
SMILES: CCOc1c(F)ccc(-c2c(C(=O)O)sc3cc(F)ccc23)c1F

CLH(app) [1]: < 2 µL/min
logD (physchem): 0.5
Papp A→B (in vitro): 30 ×10⁻⁶ cm/s
SMILES: O=C(O)c1sc2cc(F)ccc2c1Cl

CLH(app) [1]: < 2.7 µL/min
PB [19]: 103 pmol
logD (physchem): 0.1
Papp A→B (in vitro): 14 ×10⁻⁶ cm/s
SMILES: O=C(O)c1sc2cc(F)sc2c1Cl

CLH(app) [1]: 26 µL/min
logD (physchem): 1.1
Papp A→B (in vitro): 26 ×10⁻⁶ cm/s
SMILES: COc1c(F)ccc(-c2c(C(=O)O)sc3cc(F)ccc23)c1F

CLH(app) [1]: 23 µL/min
logD (physchem): 1.3
Papp A→B (in vitro): 10 ×10⁻⁶ cm/s
SMILES: O=C(O)c1sc2cc(F)ccc2c1-c1cc(F)c(F)cc1F

Ratio IC50 [20]: 7
Ratio IC50 [21]: 36
CLH(app) [1]: 21 µL/min
logD (physchem): 1
Papp A→B (in vitro): 20 ×10⁻⁶ cm/s
SMILES: COc1c(F)cc(F)c(-c2c(C(=O)O)sc3cc(F)ccc23)c1F

Retention_time [22]: 17.6 min
half-life [23]: ~1.37 h
SMILES: COc1c(F)c(F)cc(-c2c(C(=O)OC3O[C@H](C(=O)O)[C@@H](O)[C@H](O)[C@H]3O)sc3cc(F)ccc23)c1F (some centres undefined)

CLH(app) [1]: 52 µL/min
logD (physchem): 2.2
Papp A→B (in vitro): 11 ×10⁻⁶ cm/s
SMILES: CCc1c(F)c(F)cc(-c2c(C(=O)O)sc3cc(F)ccc23)c1F
